Here are results for 8 compounds from patent EP0302760A2, “Antiviral therapy for hepatitis B using 2',3'-dideoxynucleosides” (priority 1987, dated 1989).

In brackets after ≈: the same amount, converted by molar mass. Where two headings read alike, the source gives them in different places. Some results are limits rather than exact numbers.

Data set [1] deals with extracellular DHBV. Description: Southern blot analysis of extracellular virion DNA from culture media of DHBV-infected hepatocytes. The conditions noted are these: 1 µg/ml; culture media pooled from day 16 to day 20. Type of data set: cell-based, duck hepatitis B virus (DHBV). The text has this: Southern blot analysis of the extracellular virion DNA was separated on a 1.5% agarose gel. Culture media were pooled from the day 16 to day 20 post-plating. Pelleted virions were digested with pronase and the DNA from the entire sample was applied to each lane. […] RC in Figure 3 indicated relaxed circular DNA.

Data set [2] concerns duck hepatitis B virus (DHBV). The data set is described as follows: Dot blot hybridization of DHBV DNA from DHBV-infected primary duck hepatocyte cultures. In kind it is cell-based. The conditions noted are these: for inhibition at 10 µg/mL / inhibition at 1 µg/mL / IC50: Duck hepatitis B virus, Hepatocyte; for inhibition at 10 µg/mL / inhibition at 1 µg/mL: 480 h; for inhibition at 10 µg/mL: read-out: PERCENTAGE INHIBITION, 10 µg/ml; for inhibition at 1 µg/mL: read-out: PERCENTAGE INHIBITION, 1 µg/ml; for IC50: DHBV-infected hepatocytes, drug from day 2, DNA extracted on day sixteen, radioactivity of dots counted, read-out: concentrations of nucleoside analog required to inhibit the virus replication by 50% (ID₅₀). Here is the method: Dose response curves for the purine 2′,3′-dideoxynucleosides and pyrimidine 2′,3′-dideoxynucleosides have been established by using the duck hepatitis B virus (DHBV) infected hepatocyte system. The DHBV-infected hepatocyte cultures were established as described in Example 1. Dideoxynucleoside analogs were added to the media of the hepatocyte cultures on day 2 and maintained in culture with media changes every two days. On day sixteen the DNA was extracted from the cells and the dot blots performed using the ³²P-labelled DHBV probe. The radioactivity of each "dot" was quantitated by cutting out the "dot" and counting the radioactivity. The abbreviations used in Figure 1, setting out the dose response curves, are as follows: ddA = 2′,3′-dideoxyadenosine; ddG = 2′,3′-dideoxyguanosine; ddDAPR = 2,6-diaminopurine 2′,3′-dideoxyriboside; ddI = 2′,3′-dideoxyinosine; ddT = 2′,3′-dideoxythymidine; ddC = 2′,3′-dideoxycytidine.
Newborn ducklings are infected with DHBV. After 5 to 7 days post-infection, samples of blood are taken from the ducklings and examined for DHBV DNA using dot hybridization with a specific DNA probe [Mason et al, Proc. Natl. Acad. Sci. USA 79, 3997-4001 (1982)]. The livers are removed from dot-blot positive ducklings and used to produce primary hepatocyte cultures infected with DHBV as previously described. (Tuttleman et al, J. of Virology, 58, 17-25). After 2 days in culture, antiviral agents are added to the culture media. The media are changed every 2 days and at selected times, the cells are removed and the total DNA extracted.
The DNA is spotted on nitrocellulose paper and probed with the ³²P-labelled DHBV DNA probe in accordance with the following procedure. The DNA from DHBV-infected hepatocytes was extracted and spotted onto a nitrocellular filter. The above described ³²P-nick translated - DHBV DNA (pDH-010=DHBV) probe was used. The DNA was extracted from 6-cm cell culture dishes at various times post-plating. In the VC group, cells were harvested at 2, 6, 8, 10, 14, 18 and 20 days. Duplicate samples were spotted for days 14, 18 and 20. In drug-treated groups, cells were harvested on days 8, 14 and 20. In Figure 1, this is from left to right. Drugs were added to the culture at 2 days post-plating and maintained throughout media changes every 2 days. The concentrations (µg/ml) used are indicated in Figure 1 for 2′,3′-dideoxythymidine (ddT), 2′,3′-dideoxycytidine (ddC), adenine arabinoside (ara A), 2′,3′-dideoxyadenosine (ddA) and 2′,3′-dideoxyguanosine (ddG). The total intracellular DNA was extracted from cells using the standard phenol extraction method. The cells in a 6-cm diameter Petri dish (approximately 5 x 10⁶ cells) were lysed in a lysis buffer containing 0.2% SDS, 150 mM Tris-HCl pH 8.0, 10 mM EDTA, 5 mM EGTA, and 150 mM NaCl. The cell lysate was digested with 0.5 mg/ml of pronase E (available from Sigma) at 37°C for 2 hours and deproteinized by extraction with an equal volume of phenol saturated with 20 mM Tris HCl, pH 7.5, 0.5 mM EDTA and 0.1% 8-hydroxyquinoline. Concentrated ammonium acetate [pH 7.0 (2.5 M)] was added to the aqueous phase to yield a 0.25 M ammonium acetate solution and the nucleic acids were precipitated with 2 volumes of 100% ethanol. The pellet of nucleic acid was washed with ethanol and dried. The DNA was dissolved in a solution containing 12.5 mM Tris HCl, pH 7.5, 10 mM EDTA, 30% glycerol and 0.01% bromophenol blue. One twelfth of the DNA sample was spotted onto the nitrocellulose for dot-blot analysis. ddA, ddG, ddC and ddT were purchased from Pharmacia. 2,6-Diaminopurine 2′,3′-dideoxyriboside [or 2,6-diamino-9-2,3-dideoxy-β-D-glycero-pentofuranosyl)purine] (ddDAPR) can be prepared by a procedure recently used for efficient conversion of adenosine into its ddAdo derivative (Robins et al, Tetrahedron Lett., 25, […], 1984; Hansske and Robins, Tetrahedron Lett., 26, 4295-4298, 1985).

For data set [3] the following is noted: cited from earlier work.
The test system of data set [4] is hepatitis B virus. The following applies: cited from earlier work.
The subject of data set [5] is DHBV DNA. Description: Southern blot analysis of intracellular viral DNA from DHBV-infected hepatocytes. In kind it is cell-based, duck hepatitis B virus (DHBV). The following applies: for change in DHBV DNA forms in treated hepatocytes: from day 14 to day 20; for inhibition at 1 µg/mL: Duck hepatitis B virus, Hepatocyte, similar experiments to the Southern blot of Example 2. The protocol: Southern blot analysis of intracellular viral DNA was separated on a 1.5% agarose gel. The DNA was extracted from DHBV-infected hepatocytes in a 6-cm dish and one fifth of the total DNA was applied onto each lane. […] Drug-treated groups were harvested 14 and 20 days post-plating. The DNA samples from drug-treated hepatocytes were ddA (10 µg/ml), day 14 (lane 5) and day 20 (lane 6), ddA (1 µg/ml), day 14 (lane 7) and day 20 (lane 8), ddG (10 µg/ml), day 14 (lane 9) and day 20 (lane 10), ddG (1 µg/ml), day 14 (lane 11) and day 20 (lane 12). The size markers (Kilobases) were obtained from HindIII digested bacteriophage λ DNA.

Data set [6] concerns duck hepatocytes. Description: Toxicity (cell viability) in duck hepatocytes. Type of data set: cell-based. The conditions noted are these: 100 µg/ml over a 10 day exposure. Here is the method:
(§1) The toxicity of the purine 2′,3′-dideoxynucleosides has been tested in duck hepatocytes and monkey kidney cells (Vero) to reveal that decreased cell viability with ddA or ddG at 100 µg/ml over a 10 day exposure was not detected. As is known, several lymphocyte cell lines have been examined before for viability and function in the presence of 2′,3′-dideoxynucleosides. These cell lines have not shown decreased viability and function in the presence of 2′,3′-dideoxynucleosides.

The test system of data set [7] is monkey kidney cells (Vero). The data set is described as follows: Toxicity (cell viability) in monkey kidney cells. In kind it is cell-based. The conditions noted are these: 100 µg/ml over a 10 day exposure. The protocol:
as §1

The subject of data set [8] is DHBV. Description: In vivo treatment of Pekin ducks persistently infected with DHBV, dot blot of sera. The following applies: 10 mg/kg twice daily by intramuscular injection, four ducks. Here is the method: Additional tests were conducted to verify the activity in vivo. Four Pekin ducks with proven persistent infection with DHBV were treated with 2,6-diaminopurine 2′,3′-dideoxyriboside (ddDAPR). The animals received 10 mg/kg twice daily by intramuscular injection for two weeks. […] All five animals had evidence of persistent infection with DHBV. […] The untreated duck (number 5) was not bled at this time. […] The control animal (number 5) remained strongly positive after 2 weeks (row c, column 5).

Data set [9] concerns the target adenosine deaminase (Homo sapiens, UniProt P00813). The following applies: Balzarini et al 1987; cited from earlier work.
A short description of data set [10]: Conversion of ddDAPR to ddG in whole blood. In kind it is in vitro ADME. The following applies: whole blood from a duck, in 5 minutes; read-out: ddDAPR metabolized to ddG. The source says:
We have also confirmed that ddDAPR is rapidly metabolized to ddG. This has been done using whole blood from a duck and measuring the rate of conversion of ddDAPR to ddG.

Where [11] appears, read: densitometry scans of the dot hybridization at 20 days.

adenosine deaminase, sequence (P00813 whole entry): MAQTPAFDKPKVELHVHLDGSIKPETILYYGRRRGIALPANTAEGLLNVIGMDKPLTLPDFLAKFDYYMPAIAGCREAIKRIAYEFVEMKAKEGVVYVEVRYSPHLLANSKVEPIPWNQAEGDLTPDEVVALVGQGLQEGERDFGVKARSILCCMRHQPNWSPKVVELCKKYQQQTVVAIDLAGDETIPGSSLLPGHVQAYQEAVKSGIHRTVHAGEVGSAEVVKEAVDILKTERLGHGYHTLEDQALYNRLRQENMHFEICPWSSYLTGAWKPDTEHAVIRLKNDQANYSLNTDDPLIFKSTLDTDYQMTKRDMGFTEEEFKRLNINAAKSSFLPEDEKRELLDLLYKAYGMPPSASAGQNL

As to “2′,3′-dideoxythymidine [ddT, reference compound]”, the “production of extracellular virus” value in [1] is listed as “fail to inhibit”. Moreover, the “inhibition of DHBV replication” value in [2] (dose response curve, day sixteen, Figure 1) is on record as “no inhibition”.

As to `Cc1cn([C@H]2C[C@H](N=[N+]=[N-])[C@@H](CO)O2)c(=O)[nH]c1=O` [AZT, 3′-azido-3′deoxythymidine], the peak plasma levels in data set [3] (after infusions of 1 mg/kg) and in data set [3] (after oral administration of 2 mg/kg) was 1 µg/mL in each case.

As to `Nc1ncnc2c1ncn2[C@@H]1O[C@H](CO)[C@@H](O)[C@@H]1O` [araA, adenine arabinoside], in data set [4] (chronic hepatitis B patients), the “toxicity associated with therapy” value was “bone marrow suppression, neuromuscular pain and neurotoxicity”. Also, the “treated patients that show some benefit from therapy” value in data set [4] (chronic hepatitis B, most open and controlled studies) is on record as “about 30%”. Also, the inhibition at 10 µg/mL in data set [2] (setting [11]) is approximately 63%.

In the case of `Nc1ncnc2c1ncn2[C@H]1CC[C@@H](CO)O1` [ddA, 2′,3′-dideoxyadenosine], in data set [5] (1 µg/ml, RC, CCC and SS forms), the “inhibition of the synthesis of all forms of DHBV DNA” value was “very strong inhibition”. Moreover, the “change in DHBV DNA forms in treated hepatocytes” value in [5] is recorded as “small increase in RC DNA”. For the same compound, the “production of extracellular virus” value in data set [1] is reported as “markedly decreased”. For the same compound, in [6], the decreased cell viability entry is recorded as “not detected”. The decreased cell viability entry in data set [7] was “not detected”. Also, in data set [2] (setting [11]), the inhibition at 1 µg/mL was more than 99% and the inhibition at 10 µg/mL is more than 99%. In addition, in data set [2] (Figure 1), the IC50 was determined as 0.12 µg/mL (≈ 0.51 µM).

Regarding `Nc1ccn([C@H]2CC[C@@H](CO)O2)c(=O)n1` [ddC, 2′,3′-dideoxycytidine, reference compound], in data set [1], the “production of extracellular virus” value was “fail to inhibit”. In addition, the “PERCENTAGE INHIBITION” value in [2] (1 µg/ml, densitometry scans of the dot hybridization at 20 days) is given as “little inhibitory effect”. In [2] (setting [11]), the inhibition at 1 µg/mL turned out to be 0% and the inhibition at 10 µg/mL is approximately 57%. The IC50 in data set [2] (Figure 1) was 40 µg/mL (≈ 189 µM).

`Nc1nc(N)c2ncn([C@H]3CC[C@@H](CO)O3)c2n1` [ddDAPR, 2,6-diaminopurine 2′,3′-dideoxyriboside]: the inhibition at 1 µg/mL is more than 95% in data set [5] (1 µg/ml) and 98% in data set [2] (setting [11]). The “clearance of the virus from the sera” value is given as “completely cleared the virus from their sera” in [8] (after 1 week) and “cleared from the sera” in [8] (after 2 weeks). For the same compound, in data set [9], the “deamination by adenosine deaminase” value is reported as “deaminated by adenosine deaminase”. The metabolised at 5 min in data set [10] was more than 95%. Also, in data set [2] (Figure 1), the IC50 was determined as 0.07 µg/mL (≈ 0.28 µM).

Regarding `Nc1nc2c(ncn2[C@H]2CC[C@@H](CO)O2)c(=O)[nH]1` [ddG, 2′,3′-dideoxyguanosine], in data set [5], the “change in DHBV DNA forms in treated hepatocytes” value is given as “decrease in all forms of DHBV DNA”. The “production of extracellular virus” value in data set [1] is recorded as “markedly decreased”. For the same compound, the decreased cell viability result in data set [6] and in data set [7] was “not detected” in each case. Moreover, in data set [2] (setting [11]), the inhibition at 1 µg/mL was more than 99%. In data set [2] (setting [11]), the inhibition at 10 µg/mL is more than 99%. The IC50 in data set [2] (Figure 1) is 0.07 µg/mL (≈ 0.279 µM).

Consider `OC[C@@H]1CC[C@H](n2cnc3c(O)ncnc32)O1` [ddI, 2′,3′-dideoxyinosine], for which the inhibition at 1 µg/mL was more than 95% in data set [5] (1 µg/ml) and 96% in data set [2] (setting [11]).
